Data reported in US11466019B2, “Triazolo[4,5-d] pyramidine derivatives and their use as purine receptor antagonists” (Vernalis (R&D) Limited, priority 2008, dated 2022).

Columns and labels:
[1] = target: T1, human adenosine A2A receptors (Homo sapiens, UniProt P29274); test: Adenosine receptor binding: binding affinities at hA2A receptors ([3H]CGS-21680 displacement); conditions: Table 1; [3H]CGS-21680 displacement, HEK-293 membranes; read-out: Binding Affinity hA2A-Ki
T1 construct: host or cells: HEK-293
Description: Adenosine Receptor Binding: Binding Affinities at hA2A Receptors
The resultant homogenate was kept for immediate use in the binding assay. Binding assays were performed in a total volume of 250 μL, containing [^3H]-CGS21680 (20.0 nM), membranes and additional drugs. Total binding was determined using drug dilution buffer (50 mM Tris-HCl pH 7.5, 10 mM MgCl2, 5% DMSO). Non-specific binding was determined using 300 μM CHA. […] Filters were left to dry overnight, and Microscint-0 scintillation fluid was then added to the filters. The filters were then left for at least 2 hours before the radioactivity was assessed using a Canberra Packard TopCount microplate scintillation counter.
To determine the free ligand concentration, three vials were counted with 25 μL of [^3H]CGS21680 containing 4 mL of Ultima-Gold MV scintillant on a Beckman LS6500 multi-purpose scintillation counter.
(§1) Data was analysed using a 4 parameter logistical equation and non-linear regression which yields affinity constants (pIC50), and slope parameters:
(§2) [formula] where E is the quantity of binding and [A] is the competitor concentration. The Ki is then determined using the Cheng-Prusoff equation: […]

[2] = target: T2, hA2B receptors (Homo sapiens, UniProt P29275); test: Adenosine receptor binding: binding affinities at hA2B receptors ([3H]-ZM241385 displacement); conditions: Table 1; for Ki: [3H]-ZM241385 displacement, HEK-293 membranes, read-out: Binding Affinity hA2B-Ki; for Binding Selectivity A2b/A2a: ratio of Ki values
T2 construct: host or cells: HEK-293
T2 sequence (P29275 1-332): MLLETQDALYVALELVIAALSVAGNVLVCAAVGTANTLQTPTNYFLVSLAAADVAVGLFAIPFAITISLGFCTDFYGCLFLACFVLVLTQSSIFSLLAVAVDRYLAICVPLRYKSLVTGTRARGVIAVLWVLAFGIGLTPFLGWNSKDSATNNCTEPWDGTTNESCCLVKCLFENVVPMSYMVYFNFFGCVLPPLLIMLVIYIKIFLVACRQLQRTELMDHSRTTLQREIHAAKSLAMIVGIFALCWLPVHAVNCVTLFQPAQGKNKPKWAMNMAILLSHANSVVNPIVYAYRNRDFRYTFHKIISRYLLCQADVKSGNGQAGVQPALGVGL

[3] = system: haloperidol-induced deficits in locomotor activity in mice; test: Haloperidol-induced hypolocomotion model (HaloLMA); assay type: in vivo; conditions: female TO mice, intraperitoneal, haloperidol 0.2 mg/kg
From the text: Evaluation of Potential Anti-Parkinsonian Activity In Vivo: Haloperidol-Induced Hypolocomotion Model
This approach is also considered a valid method for screening drugs with potential antiparkinsonian effects. Thus, the ability of novel adenosine antagonists to block haloperidol-induced deficits in locomotor activity in mice can be used to assess both in vivo and potential antiparkinsonian efficacy.
Female TO mice (25-30 g) are used for all experiments. Animals are housed in groups of 8 (cage size-40 cm (width) by 40 cm (length) by 20 cm (height)) under 12 hour light/dark cycle (lights on 08:00), in a temperature (20±2° C.) and humidity (55±15%) controlled environment. Animals have free access to food and water, and are allowed at least 7 days to acclimatize after delivery before experimental use.
Liquid injectable haloperidol (e.g., 1 mL Serenance ampoules from Baker Norton, Harlow, Essex, each containing haloperidol BP 5 mg) are diluted to a final concentration of 0.02 mg/mL using saline. Test compounds are typically prepared as aqueous suspensions in 8% Tween. All compounds are administered intraperitoneally in a volume of 10 mL/kg.
1.5 hours before testing, mice are administered 0.2 mg/kg haloperidol, a dose that reduces baseline locomotor activity by at least 50%. Test substances are typically administered 5-60 minutes prior to testing. The animals are then placed individually into clean, clear polycarbonate cages (20 cm (width) by 40 cm (length) by 20 cm (height), with a flat perforated, Perspex lid). Horizontal locomotor activity is determined by placing the cages within a frame containing a 3 by 6 array of photocells linked to a computer, which tabulates beam breaks. Mice are left undisturbed to explore for 1 hour, and the number of beams breaks made during this period serves as a record of locomotor activity which is compared with data for control animals for statistically significant differences.
A number of the exemplified compounds of the present invention were tested in this assay and the results obtained are shown in Table 3, below.

[4] = target: T3, human adenosine A1 receptors (Homo sapiens, UniProt P30542); test: Adenosine receptor binding: binding affinities at hA1 receptors ([3H]DPCPX displacement); conditions: Table 1; for Ki: [3H]DPCPX displacement, CHO-K1 membranes, read-out: Binding Affinity hA1-Ki; for Binding Selectivity A1/A2a: ratio of Ki values
T3 construct: expressed in transfected cells; host or cells: CHO-K1
T3 sequence (P30542 1-326): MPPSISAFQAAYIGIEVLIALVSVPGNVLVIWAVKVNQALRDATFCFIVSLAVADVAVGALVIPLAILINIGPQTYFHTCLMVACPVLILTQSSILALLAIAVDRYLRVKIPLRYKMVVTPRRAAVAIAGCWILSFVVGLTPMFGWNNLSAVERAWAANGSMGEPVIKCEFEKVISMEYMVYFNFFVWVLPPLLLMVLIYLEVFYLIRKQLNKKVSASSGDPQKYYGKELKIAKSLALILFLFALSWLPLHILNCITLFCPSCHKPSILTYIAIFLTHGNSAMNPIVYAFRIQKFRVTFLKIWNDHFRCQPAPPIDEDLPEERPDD
Description: Adenosine Receptor Binding: Binding Affinities at hA1 Receptors
The resultant homogenate was kept for immediate use in the binding.
Binding assays were performed in a total volume of 250 μL, containing [^3H]-DPCPX (3.0 nM), membranes and additional drugs. Total binding was determined using drug dilution buffer (50 mM Tris-HCl pH:7.5, 10 mM MgCl2, 5% DMSO). Non-specific binding was determined using 300 μM N6-cyclohexyladenosine (CHA). […] Filters were left to dry overnight, and Microscint-0 scintillation fluid was then added to the filters. The filters were then left for at least 2 hours before the radioactivity was assessed using a Canberra Packard TopCount microplate scintillation counter.
To determine the free ligand concentration, three vials were counted with 25 μL of [^3H]DPCPX containing 4 mL of Ultima-Gold MV scintillant on a Beckman LS6500 multi-purpose scintillation counter.
as §1, §2

[5] = target: T4, human adenosine A3 receptors (Homo sapiens, UniProt P0DMS8); test: Adenosine receptor binding: binding affinities at hA3 receptors ([125I]-AB MECA displacement); conditions: Table 1; for Ki: [125I]-AB MECA displacement, CHO-K1 membranes, read-out: Binding Affinity hA3-Ki; for Binding Selectivity A3/A2a: ratio of Ki values
T4 construct: expressed in transfected cells; host or cells: CHO-K1
T4 sequence (P0DMS8 1-318): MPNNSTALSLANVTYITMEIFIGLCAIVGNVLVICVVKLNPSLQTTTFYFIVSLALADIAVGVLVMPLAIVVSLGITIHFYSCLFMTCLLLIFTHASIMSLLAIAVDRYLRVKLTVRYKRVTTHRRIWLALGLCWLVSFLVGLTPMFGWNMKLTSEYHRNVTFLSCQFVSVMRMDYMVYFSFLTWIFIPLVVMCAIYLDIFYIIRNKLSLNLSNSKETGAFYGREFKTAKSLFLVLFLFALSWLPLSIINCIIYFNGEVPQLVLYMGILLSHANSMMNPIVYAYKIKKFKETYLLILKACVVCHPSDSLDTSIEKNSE
Description: [formula] Adenosine Receptor Binding: Binding Affinities at hA3 Receptors
The resultant homogenate was kept for immediate use in the binding assay.
Total binding was determined using drug dilution buffer (50 mM Tris-HCl pH 7.5, 10 mM MgCl2, 5% DMSO). Non-specific binding was determined using 10 μM IB-MECA. […] Filters were left to dry overnight, and Microscint-0 scintillation fluid was then added to the filters. The filters were then left for at least 2 hours before the radioactivity was assessed using a Canberra Packard TopCount microplate scintillation counter.
as §1, §2

T1 sequence (P29274 whole entry): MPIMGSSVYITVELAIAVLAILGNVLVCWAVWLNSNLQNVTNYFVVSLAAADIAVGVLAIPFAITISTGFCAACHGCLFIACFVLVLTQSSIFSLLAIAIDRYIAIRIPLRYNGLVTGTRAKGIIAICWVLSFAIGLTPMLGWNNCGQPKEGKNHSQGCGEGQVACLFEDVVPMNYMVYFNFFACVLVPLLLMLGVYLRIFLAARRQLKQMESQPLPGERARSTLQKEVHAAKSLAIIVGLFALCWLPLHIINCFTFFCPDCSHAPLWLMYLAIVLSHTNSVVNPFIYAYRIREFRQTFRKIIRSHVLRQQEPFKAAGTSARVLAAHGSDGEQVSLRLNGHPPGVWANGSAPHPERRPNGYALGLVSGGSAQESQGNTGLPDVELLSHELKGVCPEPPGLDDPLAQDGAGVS

| SMILES | Ki [1] [nM] | Ki [2] [nM] | Binding Selectivity A2b/A2a [2] | Ki [4] [nM] | Binding Selectivity A1/A2a [4] | Ki [5] [nM] | Binding Selectivity A3/A2a [5] | In Vivo activity HaloLMA MED [3] [mg/kg] |
| --- | --- | --- | --- | --- | --- | --- | --- | --- |
| COCc1cccc(Cn2nnc3c(-c4nc(C)cs4)nc(N)nc32)n1 [Example 30, 7-(4-methylthiazol-2-yl)-3-(6-[methoxymethyl]pyrid-2-ylmethyl)-3H-[1,2,3]triazolo[4,5-d]pyrimidin-5-amine] | 4.8 | 2370 | 498 | 799 | 168 | 4600 | 965 | 3 |
| COCc1cccc(Cn2nnc3c(-c4ccccc4)nc(N)nc32)n1 [Example 12, 7-phenyl-3-(6-[methoxymethyl]pyrid-2-ylmethyl)-3H-[1,2,3]triazolo[4,5-d]pyrimidin-5-amine] | 2.8 | 1000 | 354 | 270 | 96 | 8170 | 2893 | 10 |
| CC(C)(O)c1cccc(Cn2nnc3c(-c4cccc(C#N)c4)nc(N)nc32)n1 [Example 20, 7-(3-cyanophenyl)-3-(6-[1-hydroxy-1-methylethyl]pyrid-2-ylmethyl)-3H-[1,2,3]triazolo[4,5-d]pyrimidin-5-amine] | 13.4 | 1240 | 93 | 731 | 54 |  | 634 | 3 |

Now from value to compound, other results behind:

| Ki [1] [nM] | Ki [2] [nM] | Binding Selectivity A2b/A2a [2] | Ki [4] [nM] | Binding Selectivity A1/A2a [4] | Ki [5] [nM] | Binding Selectivity A3/A2a [5] | SMILES | In Vivo activity HaloLMA MED [3] [mg/kg] |
| --- | --- | --- | --- | --- | --- | --- | --- | --- |
| 4.8 | 1300 | 269 | 214 | 44 | 3760 | 780 | CC(C)(O)c1cccc(Cn2nnc3c(-c4ccccc4)nc(N)nc32)n1 [Example 8, 7-phenyl-3-(6-[1-hydroxy-1-methylethyl]pyrid-2-ylmethyl)-3H-[1,2,3]triazolo[4,5-d]pyrimidin-5-amine] | 3 |
| 4.3 | 4200 | 980 | 853 | 199 |  | 1989 | Cc1ccc(-c2nc(N)nc3c2nnn3Cc2cccc(C3(O)CCOCC3)n2)o1 [Example 5, 7-(5-methylfuran-2-yl)-3-(6-[4-hydroxyetrahydropyran-4-yl]pyrid-2-ylmethyl)-3H-[1,2,3]triazolo[4,5-d]pyrimidin-5-amine] | 3 |
| 4.6 | 2020 | 442 | 334 | 73 | 2500 | 545 | CCOCCOCc1cccc(Cn2nnc3c(-c4ccc(C)o4)nc(N)nc32)n1 [Example 32] | 1 |
| 3.1 | 1130 | 366 | 196 | 63 | 1640 | 528 | Cc1ccc(-c2nc(N)nc3c2nnn3Cc2cccc(C3(O)CCCCC3)n2)o1 [Example 4, 7-(5-methylfuran-2-yl)-3-(6-[1-hydroxy-1-cyclohexyl]pyrid-2-ylmethyl)-3H-[1,2,3]triazolo[4,5-d]pyrimidin-5-amine] | 3 |
| 1.9 | 2190 | 1165 | 360 | 192 | 706 | 375 | Cc1ccc(-c2nc(N)nc3c2nnn3Cc2cccc(C(C)(C)O)n2)o1 [Example 2, 7-(5-methylfuran-2-yl)-3-(6-[1-hydroxy-1-methylethyl]pyrid-2-ylmethyl)-3H-[1,2,3]triazolo[4,5-d]pyrimidin-5-amine] | 1 |
